Source: US20250170100A1, “MONOACYLGLYCEROL LIPASE INHIBITORS AND USE THEREOF FOR THE TREATMENT OF ANXIETY AND RELATED CONDITIONS” (Psy Therapeutics, Inc., priority 2021, published 2025)
pIC50: −log10 of the molar value.

Biological target: T1, human MAGL (Homo sapiens (Human), UniProt Q99685)
Assay: MAGL inhibition potency assay with 4NPA substrate (methods of Table C)
Format: biochemical
Settings: Method 2: Cayman Chemical MAGL enzyme, 10 nM; read-out: MAGL Potency (Detection Method)
Target sequence in this assay (Q99685 2-303): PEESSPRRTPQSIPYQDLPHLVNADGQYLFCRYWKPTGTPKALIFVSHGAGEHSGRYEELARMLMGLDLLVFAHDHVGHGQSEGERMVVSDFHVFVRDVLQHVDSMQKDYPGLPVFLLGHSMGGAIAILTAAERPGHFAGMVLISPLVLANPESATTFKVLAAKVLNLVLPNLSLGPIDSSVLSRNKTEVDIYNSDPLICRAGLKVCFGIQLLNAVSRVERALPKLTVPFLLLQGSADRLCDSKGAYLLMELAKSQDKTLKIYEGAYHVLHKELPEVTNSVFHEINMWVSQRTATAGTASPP

pIC50	Compound
> 7.30	Cc1cc(C2CC3(C2)CN(C(=O)c2cc(O)c(F)cc2F)C3)n(-c2ccccc2C)n1 [Compound 126, (2,4-difluoro-5-hydroxyphenyl) (6-(3-methyl-1-(o-tolyl)-1H-pyrazol-5-yl)-2-azaspiro[3.3]heptan-2-yl) methanone]
> 7.30	Cc1cc(C2CC3(C2)CN(C(=O)c2cc(O)ccc2C#N)C3)n(-c2ccccc2C)n1 [Compound 128, 4-hydroxy-2-({6-[3-methyl-1-(o-tolyl)-5-pyrazolyl]-2-aza-2-spiro[3.3]heptyl}carbonyl)benzonitrile]

Same assay, conditions: Method 3: Reaction Biology MAGL enzyme, 10 nM; read-out: MAGL Potency (Detection Method)

pIC50	Compound
> 7.30	Cc1cc(C2CC3(C2)CN(C(=O)c2cc(O)c(F)cc2F)C3)n(-c2ccccc2C)n1 [Compound 126, (2,4-difluoro-5-hydroxyphenyl) (6-(3-methyl-1-(o-tolyl)-1H-pyrazol-5-yl)-2-azaspiro[3.3]heptan-2-yl) methanone]

Biological target: human recombinant FAAH (Homo sapiens (Human), UniProt O00519)
Assay: FAAH counter screen (Fatty Acid Amide Hydrolase Inhibitor Screening Assay Kit)
Format: biochemical
Settings: Method A: starting concentration of 100 μM
Method: MAGL inhibitor compounds were also counter-screened for FAAH inhibition potency using the following assay. Assessment of FAAH inhibition was performed using Fatty Acid Amide Hydrolase Inhibitor Screening Assay Kit (Cayman Item No. 10005196) following manufacture's instruction with some modifications. The kit utilizes human recombinant FAAH and the fluorescent substrate, AMC Arachidonoyl amide (AAMCA). 5 μL of assay buffer (125 mM Tris, pH 9.0, 1 mM EDTA, i.e. ethylenediaminetetraacetic acid) was added to a 384-well black plate (Corning, 3573). Test compounds and control inhibitor JZL-195 (Cayman Chemical, 13668) were tested in 10-concentration IC50 mode with 3-fold serial dilution at a starting concentration of 100 μM and 10 μM, respectively. 300 nL or 30 nL of test compounds were delivered into a 384-well black plate (Corning, 3573) using a Labcyte Echo, followed by addition of 15 μL of FAAH enzyme (Cayman, 700302) in assay buffer. After a 5-minute pre-incubation at room temperature, 10 μL of AAMCA was added in assay buffer to start the reaction. Final concentration of FAAH enzyme is not specified and AAMCA substrate was used at the 20 μM. After these dilutions, the final concentration of the test compounds ranged from 100 μM to 5.08 nM or 10 μM down to 0.508 nM. The reaction was allowed to progress for 60 minutes, while the plate was read on an Envision plate reader at an Ex/Em of 350/460 nm with readings every minute. The data was analyzed in Microsoft Excel, using the slope between 30 and 59 minutes. The average of the no-enzyme wells (background) was subtracted from the data. The background-subtracted slope data was converted to % activity using the average of wells with enzyme and DMSO vehicle. IC50 values were calculated using GraphPad software (Sigmoidal dose response, variable slope equation).
Compounds listed in Table D2 were tested in the FAAH Counterscreen of Example 19

Sequence of human recombinant FAAH (O00519 whole entry): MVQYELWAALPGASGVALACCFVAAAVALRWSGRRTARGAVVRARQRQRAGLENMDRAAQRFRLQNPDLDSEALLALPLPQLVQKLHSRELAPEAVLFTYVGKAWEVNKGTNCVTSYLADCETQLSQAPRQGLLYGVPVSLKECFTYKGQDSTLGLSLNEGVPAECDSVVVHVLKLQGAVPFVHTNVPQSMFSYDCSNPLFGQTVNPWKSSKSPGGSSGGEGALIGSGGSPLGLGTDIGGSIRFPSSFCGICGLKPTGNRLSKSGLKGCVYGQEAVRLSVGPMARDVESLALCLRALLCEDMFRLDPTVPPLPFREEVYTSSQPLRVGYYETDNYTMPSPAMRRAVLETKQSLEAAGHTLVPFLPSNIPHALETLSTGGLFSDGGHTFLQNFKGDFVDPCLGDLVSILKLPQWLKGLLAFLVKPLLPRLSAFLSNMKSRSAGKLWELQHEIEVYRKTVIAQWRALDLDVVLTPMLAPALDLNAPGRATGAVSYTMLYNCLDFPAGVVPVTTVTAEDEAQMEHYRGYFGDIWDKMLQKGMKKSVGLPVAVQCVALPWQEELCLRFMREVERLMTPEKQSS

pIC50	Compound
< 5.00	Cc1ccccc1-n1nc(C2CC3(C2)CN(C(=O)c2cc(O)ccc2F)C3)cc1C [Compound 117]
< 5.00	Cc1cc(C2CC3(C2)CN(C(=O)c2ccccc2F)C3)n(-c2ccccc2C)n1 [Compound 122, (2-fluorophenyl)(6-(3-methyl-1-(o-tolyl)-1H-pyrazol-5-yl)-2-azaspiro[3.3]heptan-2-yl)methanone]
< 5.00	Cc1cc(C2CC3(C2)CN(C(=O)c2cccc(O)c2)C3)n(-c2ccccc2C)n1 [Compound 125, (3-hydroxyphenyl)(6-(3-methyl-1-(o-tolyl)-1H-pyrazol-5-yl)-2-azaspiro[3.3]heptan-2-yl)methanone]
< 5.00	Cc1cc(C2CC3(C2)CN(C(=O)c2c(F)ccc(O)c2F)C3)n(-c2ccccc2C)n1 [Compound 127, (2,6-difluoro-3-hydroxyphenyl)(6-(3-methyl-1-(o-tolyl)-1H-pyrazol-5-yl)-2-azaspiro[3.3]heptan-2-yl)methanone]

Biological target: T1, human MAGL
Assay: MAGL inhibition potency assay with 4NPA substrate (methods of Table C)
Format: biochemical
Settings: Method 1: Reaction Biology MAGL enzyme, 6 nM; read-out: MAGL Potency (Detection Method)
Text: Cayman's Monoacylglycerol Lipase Inhibitor Screening Assay provides a method for screening human MAGL inhibitors. MAGL hydrolyzes 4-nitrophenylacetate resulting in a yellow product, 4-nitrophenol, with an absorbance of 405-412 nm. The monoacylglycerol lipase inhibitor screening assay kit from Cayman Chemical was used to measure the MAGL potency for the compounds in Table 3 and Table 4. Cayman's Monoacylglycerol Lipase Inhibitor Screening Assay provides a method for screening human MAGL inhibitors. MAGL hydrolyzes 4-nitrophenylacetate resulting in a yellow product, 4-nitrophenol, with an absorbance of 405-412 nm. MAGL Inhibition was measured by the following assay. Monoacylglycerol Lipase (MAGL) inhibition was measured using recombinant MAGL enzyme (aa 2-303 RBC, internal preparation) and the substrate 4-Nitrophenyl acetate (4NPA) (Sigma-Aldrich, N8130). Hydrolysis of the substrate in the presence of the enzyme was measured by absorbance at 405 nm. 10 μL of assay buffer (10 mM Tris pH 7.5, 1 mM EDTA, 0.9% DMSO) was added to a black 384-well non-binding plate with clear bottom (Greiner, 781906) for each reaction. […] DMSO control wells were included for reference. A 10.8 nM (1.8×) MAGL mix in assay buffer was prepared, with […] added to each reaction well, for a final assay concentration of 6 nM. No enzyme wells received 25 μL of buffer. Plate was incubated at room temperature for 30 minutes. 35 mM solution of 4NPA in methanol was prepared daily. A 4.5×4NPA substrate solution was prepared in assay buffer and 10 μL was added to each reaction well, for a final assay concentration of 0.25 mM. Plate was spun for 1 minute at 1000 rpm before measuring absorbance using a CLARIOstar plate reader (BMG Labtech). A kinetic reading at 405 nm was done every minute for 30 minutes. Data was analyzed using the linear slope of the reaction progress curve and the average of the no-enzyme wells (background) was subtracted from the data. The background-subtracted slope data was converted to % activity using the average of wells with enzyme and DMSO vehicle. IC50s were calculated using GraphPad software (Sigmoidal dose response, variable slope equation). […] Table 5 provides potency measurements of MAGL inhibition measured using the Potency Assay of Example 18 above, with the following modifications described in Table C. [table]
Target sequence in this assay (Q99685 2-303): as the sequence (Q99685 2-303) above

pIC50	Compound
> 7.30	Cc1cc(C2CC3(C2)CN(C(=O)c2cc(O)c(F)cc2F)C3)n(-c2ccccc2C)n1 [Compound 126, (2,4-difluoro-5-hydroxyphenyl) (6-(3-methyl-1-(o-tolyl)-1H-pyrazol-5-yl)-2-azaspiro[3.3]heptan-2-yl) methanone]
> 7.30	Cc1cc(C2CC3(C2)CN(C(=O)c2cc(O)ccc2C#N)C3)n(-c2ccccc2C)n1 [Compound 128, 4-hydroxy-2-({6-[3-methyl-1-(o-tolyl)-5-pyrazolyl]-2-aza-2-spiro[3.3]heptyl}carbonyl)benzonitrile]

Same assay, conditions: Method 6: Reaction Biology MAGL enzyme, 6 nM; read-out: Potency (MAGL inhibition)

pIC50	Compound
< 5.00	Cc1cnn(C2CC3(C2)CN(C(=O)c2cc(O)ccc2F)C3)c1-c1ccccc1Cl [Compound 404]
< 5.00	Cc1ccccc1-c1c(C)cnn1C1CC2(C1)CN(C(=O)c1cc(O)ccc1F)C2 [Compound 405]
< 5.00	Cc1cc(-c2ccccc2C)n(C2CC3(C2)CN(C(=O)c2cc(O)ccc2F)C3)n1 [Compound 406]
< 5.00	Cc1cn(C2CC3(C2)CN(C(=O)c2cc(O)ccc2F)C3)nc1-c1ccccc1Cl [Compound 416]
< 5.00	O=C(c1ccc(F)cc1OC1CC1)N1CC2(CC(n3nc(C(F)(F)F)cc3-c3ccccc3C(F)(F)F)C2)C1 [Compound 424, (2-cyclopropoxy-4-fluorophenyl) (6-(3-(trifluoromethyl)-5-(2-(trifluoromethyl)phenyl)-1H-pyrazol-1-yl)-2-azaspiro[3.3]heptan-2-yl) methanone]
< 5.00	Cc1ccccc1-c1ccn(C2CC3(C2)CN(C(=O)c2cc(O)ccc2F)C3)n1 [Compound 441]
< 5.00	Cc1ccccc1-c1cc(C)n(C2CC3(C2)CN(C(=O)c2cc(O)ccc2F)C3)n1 [Compound 442]
< 5.00	O=C(c1cc(O)ccc1F)N1CC2(CC(n3cc(C4CC4)c(-c4ccccc4Cl)n3)C2)C1 [Compound 445]

Same assay, conditions: Method 14: Reaction Biology MAGL enzyme, 6 nM; read-out: MAGL Potency (Detection Method)

pIC50	Compound
> 7.30	Cc1cc(C2CC3(C2)CN(C(=O)c2cc(O)ccc2F)C3)n(-c2cc(F)ccc2C)n1 [Compound 365, (2-fluoro-5-hydroxyphenyl) {6-[1-(5-fluoro-2-tolyl)-3-methyl-5-pyrazolyl]-2-aza-2-spiro[3.3]heptyl}methanone]
> 7.30	Cc1cc(C2CC3(C2)CN(C(=O)c2cc(O)ccc2F)C3)n(-c2ccccc2C(F)(F)F)n1 [Compound 366, (2-fluoro-5-hydroxyphenyl) (6-{3-methyl-1-[o-(trifluoromethyl)phenyl]-5-pyrazolyl}-2-aza-2-spiro[3.3]heptyl) methanone]
6.82 to 7.30	Cc1ccccc1-n1nccc1C1CC2(C1)CN(C(=O)c1cc(O)ccc1F)C2 [Compound 367, (2-fluoro-5-hydroxyphenyl) (6-(1-(o-tolyl)-1H-pyrazol-5-yl)-2-azaspiro [3.3]heptan-2-yl) methanone]

Same assay, conditions: Method 14: Reaction Biology MAGL enzyme, 6 nM; read-out: Potency (MAGL inhibition)

pIC50	Compound
< 5.00	Cc1cc(C2CC3(C2)CN(C(=O)c2cc4c(cc2F)CCO4)C3)n(-c2ccccc2C)n1 [Compound 368]
< 5.00	O=C(c1cc(O)ccc1F)N1CC2(CC(C(=O)N3CCOCC3)C2)C1 [Compound 384]
< 5.00	O=C(c1cc(O)ccc1F)N1CC2(CC(C(=O)N3CCCC3)C2)C1 [Compound 388]
< 5.00	O=C(c1cc(O)ccc1F)N1CC2(CC(C(=O)N3CCC4(COC4)C3)C2)C1 [Compound 391]
< 5.00	O=C(NCC1COC1)C1CC2(C1)CN(C(=O)c1cc(O)ccc1F)C2 [Compound 395]
< 5.00	O=C(c1cc(O)ccc1F)N1CC2(CC(C(=O)N3CCC4(CCCO4)C3)C2)C1 (stereo not drawn) [Compound 400]
< 5.00	Cc1cc(C2CC3(C2)CN(C(=O)c2ccc4c(c2)OCC4)C3)n(-c2ccccc2C)n1 [Compound 402]
< 5.00	Cc1cc(C2CC3(C2)CN(C(=O)c2cccc4c2CCO4)C3)n(-c2ccccc2C)n1 [Compound 403]

Same assay, conditions: read-out: Potency (MAGL inhibition)

pIC50	Compound
< 5.00	Cc1cc(C2CC3(C2)CN(Cc2cc(O)ccc2F)C3)n(-c2ccccc2C)n1 [Compound 150, 4-fluoro-3-((6-(3-methyl-1-(o-tolyl)-1H-pyrazol-5-yl)-2-azaspiro[3.3]heptan-2-yl)methyl) phenol]

Biological target: T1, human MAGL
Assay: MAGL reversible inhibition assay (washout)
Format: biochemical
Settings: pre-washout compound concentration: 1 μM
Method: The reversible mechanism of MAGL inhibition of a test compound of Formula (I) can be determined. Flag-tagged MAGL enzyme will be immobilized on anti-Flag beads. Immobilized enzyme will be incubated+/−inhibitor at a dose that produces complete inhibition. Colorimetric substrate (4-NPA) will be added and the reaction monitored on a plate reader for 30 minutes to verify complete inhibition. Immobilized enzyme will then be washed thoroughly to remove the inhibitor, and fresh substrate will be added. The reaction will be monitored for an additional 30 minutes; returning enzymatic activity will indicate reversibility of inhibition.
MAGL enzyme was incubated for 30 minutes in the presence of 40× the IC50 concentration of inhibitor. Enzyme+inhibitor mix was then diluted 40-fold so that the final concentration of the inhibitor equaled the IC50 concentration. Substrate was added and the reaction was monitored for 30 minutes.
Target sequence in this assay (Q99685 whole entry): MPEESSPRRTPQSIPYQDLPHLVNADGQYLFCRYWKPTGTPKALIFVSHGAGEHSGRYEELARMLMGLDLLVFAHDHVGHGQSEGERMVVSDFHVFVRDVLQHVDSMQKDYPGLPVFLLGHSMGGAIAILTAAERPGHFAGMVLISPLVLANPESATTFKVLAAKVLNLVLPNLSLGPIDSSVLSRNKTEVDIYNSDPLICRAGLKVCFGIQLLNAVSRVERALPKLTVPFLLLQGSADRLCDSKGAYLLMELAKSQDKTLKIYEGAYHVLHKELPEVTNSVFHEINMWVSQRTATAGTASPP

A: degree to which MAGL enzymatic activity returned following washout	Compound
155	Cc1cnn(C2CC3(C2)CN(C(=O)c2cc(O)ccc2F)C3)c1-c1cc(F)ccc1Cl [Compound 519, {6-[5-(2-chloro-5-fluorophenyl)-4-methyl-1-pyrazolyl]-2-aza-2-spiro[3.3]heptyl}(2-fluoro-5-hydroxyphenyl) methanone]
100	Cc1cn(C2CC3(C2)CN(C(=O)c2cc(O)ccc2F)C3)nc1-c1cc(F)ccc1Cl [Compound 520, {6-[3-(2-chloro-5-fluorophenyl)-4-methyl-1-pyrazolyl]-2-aza-2-spiro[3.3]heptyl}(2-fluoro-5-hydroxyphenyl) methanone]

Compound	A: degree to which MAGL enzymatic activity returned following washout
O=C(Oc1ccc([N+](=O)[O-])cc1)N1CCC(C(O)(c2ccc3c(c2)OCO3)c2ccc3c(c2)OCO3)CC1 [JZL-184, reference compound]	complete lack of return of MAGL enzymatic activity

Same assay, conditions: relative to control, immediately following a 30 minute washout

Compound	B: % MAGL activity returning after washout
O=C(Oc1ccc([N+](=O)[O-])cc1)N1CCC(C(O)(c2ccc3c(c2)OCO3)c2ccc3c(c2)OCO3)CC1 [JZL-184, reference compound]	<1%
